# Source: US6358885B1, “Substituted phenylheterocyclic herbicides” (Mississippi State University, priority 1992, dated 2002)
# Experiments:
# Assay in all cases: Test B preemergence/postemergence greenhouse plant response rating 0 to 10
# [1] = test system: wild oat; format: in vivo, Avena fatua; conditions: for Plant response rating, Wild oat: 0 to 10 scale
# How it was run: (§1)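 Both application timings were run together: seeds got compound preemergence, and established seedlings (two to eighteen cm) got it postemergence. Non-phytotoxic solvent carried the chemical. Ratings are visual, versus controls, at twelve to sixteen days.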
# [2] = test system: cotton; format: in vivo, Gossypium hirsutum; conditions: for Plant response rating, Cotton: 0 to 10 scale
# How it was run: as §1
# [3] = test system: velvetleaf; format: in vivo, Abutilon theophrasti; conditions: for Plant response rating, Velvetleaf: 0 to 10 scale
# How it was run: as §1
# [4] = test system: cheatgrass; format: in vivo, Bromus secalinus; conditions: for Plant response rating, Cheatgrass: 0 to 10 scale
# How it was run: as §1
# [5] = test system: soybean; format: in vivo, Glycine max; conditions: for Plant response rating, Soybean: 0 to 10 scale
# How it was run: as §1
# [6] = test system: bedstraw; format: in vivo, Galium aparine; conditions: for Plant response rating, Bedstraw: 0 to 10 scale
# How it was run: as §1
# [7] = test system: barnyardgrass; format: in vivo, Echinochloa crus-galli; conditions: for Plant response rating, Barnyardgrass: 0 to 10 scale
# How it was run: as §1
# [8] = test system: chickweed; format: in vivo, Stellaria media; conditions: for Plant response rating, Chickweed: 0 to 10 scale
# How it was run: as §1
# [9] = test system: morningglory; format: in vivo, Ipomoea hederacea; conditions: for Plant response rating, Morningglory: 0 to 10 scale
# How it was run: as §1
# [10] = test system: corn; format: in vivo, Zea mays; conditions: for Plant response rating, Corn: 0 to 10 scale
# How it was run: as §1
# [11] = test system: giant foxtail; format: in vivo, Setaria faberii; conditions: for Plant response rating, Giant foxtail: 0 to 10 scale
# How it was run: as §1
# [12] = test system: crabgrass; format: in vivo, Digitaria spp.; conditions: for Plant response rating, Crabgrass: 0 to 10 scale
# How it was run: as §1
# [13] = test system: blackgrass; format: in vivo, Alopecurus myosuroides; conditions: for Plant response rating, Blackgrass: 0 to 10 scale
# How it was run: as §1
# [14] = test system: rice; format: in vivo, Oryza sativa; conditions: for Plant response rating, Rice: 0 to 10 scale
# How it was run: as §1
# [15] = test system: sorghum; format: in vivo, Sorghum bicolor; conditions: for Plant response rating, Sorghum: 0 to 10 scale
# How it was run: as §1
# [16] = test system: wheat; format: in vivo, Triticum aestivum; conditions: for Plant response rating, Wheat: 0 to 10 scale
# How it was run: as §1
# [17] = test system: purple nutsedge; format: in vivo, Cyperus rotundus; conditions: for Plant response rating, Nutsedge: 0 to 10 scale
# How it was run: as §1
# [18] = test system: cocklebur; format: in vivo, Xanthium pensylvanicum; conditions: for Plant response rating, Cocklebur: 0 to 10 scale
# How it was run: as §1
# [19] = test system: lambsquarters; format: in vivo, Chenopodium album; conditions: for Plant response rating, Lambsquarter: 0 to 10 scale
# How it was run: as §1
# [20] = test system: wild buckwheat; format: in vivo, Polygonum convolvulus; conditions: for Plant response rating, Wild buckwheat: 0 to 10 scale
# How it was run: as §1
# [21] = test system: barley; format: in vivo, Hordeum vulgare; conditions: for Plant response rating, Barley: 0 to 10 scale
# How it was run: as §1
# [22] = test system: sugar beet; format: in vivo, Beta vulgaris; conditions: for Plant response rating, Sugar beet: 0 to 10 scale
# How it was run: as §1
# [23] = test system: rape; format: in vivo, Brassica napus; conditions: for Plant response rating, Rape: 0 to 10 scale
# How it was run: as §1
compound,measurement,setting,value
CCOC(=O)COc1cc(-c2nn3c(c2Cl)CCCC3)c(Cl)cc1Cl [Compound 73],"Plant response rating, Wild oat","[1]; POSTEMERGENCE, Rate 50 g/ha",1
same,"Plant response rating, Wild oat","[1]; PREEMERGENCE, Rate 50 g/ha",0
same,"Plant response rating (0 to 10 scale), Wild oat","[1]; PREEMERGENCE, Rate 200 g/ha",2
same,"Plant response rating, Wild oat","[1]; Rate 200 g/ha, POSTEMERGENCE",1
same,"Plant response rating, Cotton","[2]; POSTEMERGENCE, Rate 50 g/ha",10
same,"Plant response rating, Cotton","[2]; PREEMERGENCE, Rate 50 g/ha",0
same,"Plant response rating (0 to 10 scale), Cotton","[2]; PREEMERGENCE, Rate 200 g/ha",0
same,"Plant response rating, Cotton","[2]; Rate 200 g/ha, POSTEMERGENCE",10
same,"Plant response rating, Velvetleaf","[3]; POSTEMERGENCE, Rate 50 g/ha",6
same,"Plant response rating, Velvetleaf","[3]; PREEMERGENCE, Rate 50 g/ha",2
same,"Plant response rating (0 to 10 scale), Velvetleaf","[3]; PREEMERGENCE, Rate 200 g/ha",7
same,"Plant response rating, Velvetleaf","[3]; Rate 200 g/ha, POSTEMERGENCE",9
same,"Plant response rating, Cheatgrass","[4]; POSTEMERGENCE, Rate 50 g/ha",3
same,"Plant response rating, Cheatgrass","[4]; PREEMERGENCE, Rate 50 g/ha",0
same,"Plant response rating (0 to 10 scale), Cheatgrass","[4]; PREEMERGENCE, Rate 200 g/ha",2
same,"Plant response rating, Cheatgrass","[4]; Rate 200 g/ha, POSTEMERGENCE",6
same,"Plant response rating, Soybean","[5]; POSTEMERGENCE, Rate 50 g/ha",2
same,"Plant response rating, Soybean","[5]; PREEMERGENCE, Rate 50 g/ha",0
same,"Plant response rating (0 to 10 scale), Soybean","[5]; PREEMERGENCE, Rate 200 g/ha",0
same,"Plant response rating, Soybean","[5]; Rate 200 g/ha, POSTEMERGENCE",5
same,"Plant response rating, Bedstraw","[6]; POSTEMERGENCE, Rate 50 g/ha",7
same,"Plant response rating, Bedstraw","[6]; PREEMERGENCE, Rate 50 g/ha",2
same,"Plant response rating (0 to 10 scale), Bedstraw","[6]; PREEMERGENCE, Rate 200 g/ha",9
same,"Plant response rating, Bedstraw","[6]; Rate 200 g/ha, POSTEMERGENCE",8
same,"Plant response rating, Barnyardgrass","[7]; POSTEMERGENCE, Rate 50 g/ha",7
same,"Plant response rating, Barnyardgrass","[7]; PREEMERGENCE, Rate 50 g/ha",0
same,"Plant response rating (0 to 10 scale), Barnyardgrass","[7]; PREEMERGENCE, Rate 200 g/ha",0
same,"Plant response rating, Barnyardgrass","[7]; Rate 200 g/ha, POSTEMERGENCE",9
same,"Plant response rating, Chickweed","[8]; POSTEMERGENCE, Rate 50 g/ha",2
same,"Plant response rating, Chickweed","[8]; PREEMERGENCE, Rate 50 g/ha",2
same,"Plant response rating (0 to 10 scale), Chickweed","[8]; PREEMERGENCE, Rate 200 g/ha",4
same,"Plant response rating, Chickweed","[8]; Rate 200 g/ha, POSTEMERGENCE",3
same,"Plant response rating, Morningglory","[9]; POSTEMERGENCE, Rate 50 g/ha",10
same,"Plant response rating, Morningglory","[9]; PREEMERGENCE, Rate 50 g/ha",0
same,"Plant response rating (0 to 10 scale), Morningglory","[9]; PREEMERGENCE, Rate 200 g/ha",0
same,"Plant response rating, Morningglory","[9]; Rate 200 g/ha, POSTEMERGENCE",9
same,"Plant response rating, Corn","[10]; POSTEMERGENCE, Rate 50 g/ha",5
same,"Plant response rating, Corn","[10]; PREEMERGENCE, Rate 50 g/ha",0
same,"Plant response rating (0 to 10 scale), Corn","[10]; PREEMERGENCE, Rate 200 g/ha",0
same,"Plant response rating, Corn","[10]; Rate 200 g/ha, POSTEMERGENCE",8
same,"Plant response rating, Giant foxtail","[11]; POSTEMERGENCE, Rate 50 g/ha",5
same,"Plant response rating, Giant foxtail","[11]; PREEMERGENCE, Rate 50 g/ha",0
same,"Plant response rating (0 to 10 scale), Giant foxtail","[11]; PREEMERGENCE, Rate 200 g/ha",0
same,"Plant response rating, Giant foxtail","[11]; Rate 200 g/ha, POSTEMERGENCE",5
same,"Plant response rating, Crabgrass","[12]; POSTEMERGENCE, Rate 50 g/ha",3
same,"Plant response rating, Crabgrass","[12]; PREEMERGENCE, Rate 50 g/ha",0
same,"Plant response rating (0 to 10 scale), Crabgrass","[12]; PREEMERGENCE, Rate 200 g/ha",0
same,"Plant response rating, Crabgrass","[12]; Rate 200 g/ha, POSTEMERGENCE",6
same,"Plant response rating, Blackgrass","[13]; POSTEMERGENCE, Rate 50 g/ha",5
same,"Plant response rating, Blackgrass","[13]; PREEMERGENCE, Rate 50 g/ha",0
same,"Plant response rating (0 to 10 scale), Blackgrass","[13]; PREEMERGENCE, Rate 200 g/ha",0
same,"Plant response rating, Blackgrass","[13]; Rate 200 g/ha, POSTEMERGENCE",5
same,"Plant response rating, Rice","[14]; POSTEMERGENCE, Rate 50 g/ha",6
same,"Plant response rating, Rice","[14]; PREEMERGENCE, Rate 50 g/ha",0
same,"Plant response rating (0 to 10 scale), Rice","[14]; PREEMERGENCE, Rate 200 g/ha",0
same,"Plant response rating, Rice","[14]; Rate 200 g/ha, POSTEMERGENCE",6
same,"Plant response rating, Sorghum","[15]; POSTEMERGENCE, Rate 50 g/ha",4
same,"Plant response rating, Sorghum","[15]; PREEMERGENCE, Rate 50 g/ha",0
same,"Plant response rating (0 to 10 scale), Sorghum","[15]; PREEMERGENCE, Rate 200 g/ha",0
same,"Plant response rating, Sorghum","[15]; Rate 200 g/ha, POSTEMERGENCE",5
same,"Plant response rating, Wheat","[16]; POSTEMERGENCE, Rate 50 g/ha",2
same,"Plant response rating, Wheat","[16]; PREEMERGENCE, Rate 50 g/ha",0
same,"Plant response rating (0 to 10 scale), Wheat","[16]; PREEMERGENCE, Rate 200 g/ha",2
same,"Plant response rating, Wheat","[16]; Rate 200 g/ha, POSTEMERGENCE",4
same,"Plant response rating, Nutsedge","[17]; POSTEMERGENCE, Rate 50 g/ha",2
same,"Plant response rating, Nutsedge","[17]; PREEMERGENCE, Rate 50 g/ha",0
same,"Plant response rating (0 to 10 scale), Nutsedge","[17]; PREEMERGENCE, Rate 200 g/ha",0
same,"Plant response rating, Nutsedge","[17]; Rate 200 g/ha, POSTEMERGENCE",3
same,"Plant response rating, Cocklebur","[18]; POSTEMERGENCE, Rate 50 g/ha",8
same,"Plant response rating, Cocklebur","[18]; PREEMERGENCE, Rate 50 g/ha",0
same,"Plant response rating (0 to 10 scale), Cocklebur","[18]; PREEMERGENCE, Rate 200 g/ha",0
same,"Plant response rating, Cocklebur","[18]; Rate 200 g/ha, POSTEMERGENCE",10
same,"Plant response rating, Lambsquarter","[19]; POSTEMERGENCE, Rate 50 g/ha",9
same,"Plant response rating, Lambsquarter","[19]; PREEMERGENCE, Rate 50 g/ha",9
same,"Plant response rating (0 to 10 scale), Lambsquarter","[19]; PREEMERGENCE, Rate 200 g/ha",10
same,"Plant response rating, Lambsquarter","[19]; Rate 200 g/ha, POSTEMERGENCE",10
same,"Plant response rating, Wild buckwheat","[20]; POSTEMERGENCE, Rate 50 g/ha",10
same,"Plant response rating, Wild buckwheat","[20]; PREEMERGENCE, Rate 50 g/ha",0
same,"Plant response rating (0 to 10 scale), Wild buckwheat","[20]; PREEMERGENCE, Rate 200 g/ha",3
same,"Plant response rating, Wild buckwheat","[20]; Rate 200 g/ha, POSTEMERGENCE",10
same,"Plant response rating, Barley","[21]; POSTEMERGENCE, Rate 50 g/ha",2
same,"Plant response rating, Barley","[21]; PREEMERGENCE, Rate 50 g/ha",0
same,"Plant response rating (0 to 10 scale), Barley","[21]; PREEMERGENCE, Rate 200 g/ha",0
same,"Plant response rating, Barley","[21]; Rate 200 g/ha, POSTEMERGENCE",3
same,"Plant response rating, Sugar beet","[22]; POSTEMERGENCE, Rate 50 g/ha",10
same,"Plant response rating, Sugar beet","[22]; PREEMERGENCE, Rate 50 g/ha",5
same,"Plant response rating (0 to 10 scale), Sugar beet","[22]; PREEMERGENCE, Rate 200 g/ha",5
same,"Plant response rating, Sugar beet","[22]; Rate 200 g/ha, POSTEMERGENCE",10
same,"Plant response rating, Rape","[23]; POSTEMERGENCE, Rate 50 g/ha",7
same,"Plant response rating, Rape","[23]; PREEMERGENCE, Rate 50 g/ha",2
same,"Plant response rating (0 to 10 scale), Rape","[23]; PREEMERGENCE, Rate 200 g/ha",2
same,"Plant response rating, Rape","[23]; Rate 200 g/ha, POSTEMERGENCE",10
